Test results taken from US11007524B2, “Automatic microfluidic system for rapid personalized drug screening and testing method for personalized antibiotic susceptibility” (National Tsing Hua University, priority 2019, dated 2021).
≈ marks a conversion by molar mass, not a printed value.

Tests used:
[1] = test system: vancomycin-intermediate Staphylococcus aureus (VISA); experiment: Minimum inhibitory concentration by automatic microfluidic system (Example 9), resazurin colour change; format: cell-based
Method: A determination of minimum inhibitory concentration is performed by using the microfluidic chip 100 of FIG. 1 in cooperated with the testing method 200 for personalized antibiotic susceptibility of FIG. 5. The details of the testing method 200 has been described as mentioned above so that the same process will not be further illustrated herein.
In experimental, the microfluidic chip 100 is divided into a reaction zone 1001 and a reaction zone 1002 along line 10-10 by using the fluid storage chamber 111a and the fluid storage chamber 111b as a center. The reaction zone 1001 is utilized for determining the minimum inhibitory concentration of vancomycin for the vancomycin-intermediate Staphylococcus aureus, and the reaction zone 1002 is utilized for determining the minimum inhibitory concentration of gentamicin for the vancomycin-intermediate Staphylococcus aureus. After 4 hours of incubation of the reaction solutions including the resazurin, with different concentrations, the color of the reaction solution will be gradually changed to red when the vancomycin-intermediate Staphylococcus aureus grows and can be observed directly through the microfluidic chip 100.
In such the example, the reference numerals of the reaction chambers 131 of the microfluidic chip 100 are reassigned to the reaction chambers 131a to 131l. […]

[2] = test system: vancomycin-intermediate Staphylococcus aureus (VISA); experiment: Minimum inhibitory concentration by broth microdilution (Comparative Example 1); format: cell-based; conditions: same conditions
Source text: Furthermore, the present testing further includes Comparative Example 1.

Compound	MIC ([1]; Staphylococcus aureus, VISA, 4 h, read-out: minimum inhibitory concentration, Example 9)	MIC ([2]; Staphylococcus aureus)	minimum inhibitory concentration, Example 9 ([1]; microfluidic chip, VISA 1500 CFU, 3 μL reaction solution, 4 hours of incubation, resazurin)	minimum inhibitory concentration, Comparative Example 1 [2]
CN[C@H](CC(C)C)C(=O)N[C@H]1C(=O)N[C@@H](CC(N)=O)C(=O)N[C@H]2C(=O)N[C@H]3C(=O)N[C@H](C(=O)N[C@H](C(=O)O)c4cc(O)cc(O)c4-c4cc3ccc4O)[C@H](O)c3ccc(c(Cl)c3)Oc3cc2cc(c3O[C@@H]2O[C@H](CO)[C@@H](O)[C@H](O)[C@H]2O[C@H]2C[C@](C)(N)[C@H](O)[C@H](C)O2)Oc2ccc(cc2Cl)[C@H]1O [Vancomycin, vancomycin]	2.16 µg/mL (≈ 1.49 µM)	2 µg/mL (≈ 1.38 µM)	–	–
gentamicin	–	–	>7.52 µg/mL	>8 µg/mL
